Measurements taken from publication PMC5664514 (Proceedings of the National Academy of Sciences of the …, 2017).

Experiments:
[1] = test system: BDNF; settings: cited from earlier work
[2] = test system: aged APP/PS1 mice; settings: 50 mg/kg i.p.; cited from earlier work
[3] = test system: APP-PS1-21 AD mice; settings: 2 mg/d orally, 10-mo-old mice; cited from earlier work
[4] = test system: Tg2576 AD mice; settings: 25 mg/kg and 50 mg/kg; cited from earlier work
[5] = test system: HEK/APPsw cells; assay: CellTiter-Glo luminescent cell viability assay; assay type: cell-based; settings: 10 μM, 48 h
[6] = test system: ADAM10; settings: via HDAC2/3 mechanism involving USF-1; cited from earlier work
[7] = test system: HEK/APPsw cells; assay: Western blot of APP metabolites, ADAM10, BACE1, BDNF in HEK/APPsw cells; assay type: cell-based, human; settings: 10 μM, vs DMSO
[8] = test system: Tg2576 AD mice; settings: 200 mg/kg; cited from earlier work
[9] = test system: BDNF; settings: 0.8–5 mM; cited from earlier work

For `O=C(CCCCCCC(=O)Nc1ccccc1)NO` [SAHA, suberoylanilide hydroxamic acid], the BDNF gene expression [1] is given as “increase BDNF gene expression”, the cognitive behavior [2] is given as “improvement of cognitive behavior” and the Aβ plaques [3] is given as “no significant differences”. The H4K12 acetylation [3] was “increased H4K12 acetylation”, the spatial memory [3] was “partial improvement of spatial memory” and the fear conditioning behavior [4] was “not behaviorally”. The “synaptic plasticity (long-term potentiation)” value [4] was “positive effects on synaptic plasticity” and the cell viability [5] was “significantly reduce cell viability”.
For `CCC(=O)CCCCC[C@@H]1NC(=O)[C@H]2CCCCN2C(=O)[C@H]([C@@H](C)CC)NC(=O)[C@H](Cc2cn(OC)c3ccccc23)NC1=O` [apicidin], the ADAM10 expression [6] is listed as “up-regulating the expression of ADAM10”.
In the case of `C=C(C)[C@@H](CC=C(C)C)C[C@@]12C[C@@H](CC=C(C)C)C(C)(C)[C@@](CC=C(C)C)(C(=O)C(C(=O)c3ccc(O)c(O)c3)=C1O)C2=O` [garcinol], the “BACE1 protein level, change (Western blot)” value [7] is reported as 54.3%, the “mature APP, change (Western blot)” value [7] is reported as 37.9% and the “sAPPα, change (Western blot)” value [7] is reported as −33.6%.
In the case of `O=C(/C=C/C#Cc1cccc(NS(=O)(=O)c2ccccc2)c1)NO` [oxamflatin], the cell viability [5] is reported as “significantly reduce cell viability”.
For `O=C([O-])CCCc1ccccc1.[Na+]` [sodium 4-phenylbutyrate], the memory [8] is given as “positive effects on memory”.
For `CC(O)CC(=O)O` (stereo not drawn) [β-hydroxybutyrate], the BDNF expression [9] is listed as “increase BDNF expression”.
